The assay deals with Helios (IKZF2) (Homo sapiens, UniProt Q96SW2+Q9UKS7). Put plainly: Screening of Helios protein degraders using Nano-Glo HiBiT cell line (HiBiT-IKZF2). The assay is classed as cell-based. Conditions: 6 hours, HiBiT-Helios knock-in Jurkat cells; for remaining activity at 1 µM: compound 1 μM, read-out: HiBiT-IKZF2 Residual amount of Helios (%) 1 μM; for remaining activity at 10 µM: compound 10 μM, read-out: HiBiT-IKZF2 Residual amount of Helios (%) 10 μM. The method, then:
To observe intracellular degradation of Helios, the Nano-Glo HiBiT detection system (Promega) was employed. […] The cells expressing Helios fused with HiBiT were validated using the Nano-Glo HiBiT detection system (Promega) according to a predetermined protocol, isolated as single cells, and cultured in complete medium to establish a monoclonal cell line.
After 6 hours, the Nano-Glo HiBiT detection reagent was added to each well in an equal volume to the cell culture medium and incubated at room temperature for 10 minutes. Following incubation, the HiBiT luminescence signal was measured using a microplate reader (Perkin Elmer).

Our source for the remaining activity values is patent US20260216164A1, “INDOLE COMPOUND DECOMPOSING IKZF2, AND USE THEREOF” (KOREA RESEARCH INSTITUTE OF CHEMICAL TECHNOLOGY, priority 2023, published 2026).

Chain of Helios (IKZF2) (Q9UKS7 whole entry, the tested form may be a part): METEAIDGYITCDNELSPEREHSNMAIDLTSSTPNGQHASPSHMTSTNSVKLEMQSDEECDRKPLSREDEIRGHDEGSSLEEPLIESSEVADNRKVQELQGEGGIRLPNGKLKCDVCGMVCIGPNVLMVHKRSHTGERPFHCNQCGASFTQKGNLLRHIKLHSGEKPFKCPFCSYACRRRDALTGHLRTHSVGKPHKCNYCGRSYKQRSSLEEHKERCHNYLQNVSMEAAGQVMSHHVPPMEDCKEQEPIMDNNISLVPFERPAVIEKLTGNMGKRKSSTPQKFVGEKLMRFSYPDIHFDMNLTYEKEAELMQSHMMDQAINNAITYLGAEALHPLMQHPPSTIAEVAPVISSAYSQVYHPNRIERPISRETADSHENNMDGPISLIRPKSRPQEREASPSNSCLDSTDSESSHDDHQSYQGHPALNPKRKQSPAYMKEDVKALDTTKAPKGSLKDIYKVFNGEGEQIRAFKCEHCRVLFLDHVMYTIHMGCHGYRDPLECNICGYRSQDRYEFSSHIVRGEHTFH
Chain of Helios (IKZF2) (Q96SW2 whole entry, the tested form may be a part): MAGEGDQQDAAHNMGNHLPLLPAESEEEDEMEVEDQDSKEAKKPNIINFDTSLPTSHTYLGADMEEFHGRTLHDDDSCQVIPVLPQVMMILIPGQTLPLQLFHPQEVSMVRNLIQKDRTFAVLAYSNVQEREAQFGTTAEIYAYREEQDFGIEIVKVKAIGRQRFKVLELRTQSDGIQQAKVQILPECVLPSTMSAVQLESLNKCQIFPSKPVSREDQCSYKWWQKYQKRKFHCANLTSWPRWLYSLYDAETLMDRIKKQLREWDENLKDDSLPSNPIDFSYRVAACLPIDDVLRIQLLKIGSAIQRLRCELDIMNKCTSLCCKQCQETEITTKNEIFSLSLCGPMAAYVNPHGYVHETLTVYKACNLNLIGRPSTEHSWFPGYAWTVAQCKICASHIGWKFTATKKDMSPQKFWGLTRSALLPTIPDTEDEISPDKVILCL
Chain of Helios (IKZF2) (Q16531 whole entry partner, the tested form may be a part): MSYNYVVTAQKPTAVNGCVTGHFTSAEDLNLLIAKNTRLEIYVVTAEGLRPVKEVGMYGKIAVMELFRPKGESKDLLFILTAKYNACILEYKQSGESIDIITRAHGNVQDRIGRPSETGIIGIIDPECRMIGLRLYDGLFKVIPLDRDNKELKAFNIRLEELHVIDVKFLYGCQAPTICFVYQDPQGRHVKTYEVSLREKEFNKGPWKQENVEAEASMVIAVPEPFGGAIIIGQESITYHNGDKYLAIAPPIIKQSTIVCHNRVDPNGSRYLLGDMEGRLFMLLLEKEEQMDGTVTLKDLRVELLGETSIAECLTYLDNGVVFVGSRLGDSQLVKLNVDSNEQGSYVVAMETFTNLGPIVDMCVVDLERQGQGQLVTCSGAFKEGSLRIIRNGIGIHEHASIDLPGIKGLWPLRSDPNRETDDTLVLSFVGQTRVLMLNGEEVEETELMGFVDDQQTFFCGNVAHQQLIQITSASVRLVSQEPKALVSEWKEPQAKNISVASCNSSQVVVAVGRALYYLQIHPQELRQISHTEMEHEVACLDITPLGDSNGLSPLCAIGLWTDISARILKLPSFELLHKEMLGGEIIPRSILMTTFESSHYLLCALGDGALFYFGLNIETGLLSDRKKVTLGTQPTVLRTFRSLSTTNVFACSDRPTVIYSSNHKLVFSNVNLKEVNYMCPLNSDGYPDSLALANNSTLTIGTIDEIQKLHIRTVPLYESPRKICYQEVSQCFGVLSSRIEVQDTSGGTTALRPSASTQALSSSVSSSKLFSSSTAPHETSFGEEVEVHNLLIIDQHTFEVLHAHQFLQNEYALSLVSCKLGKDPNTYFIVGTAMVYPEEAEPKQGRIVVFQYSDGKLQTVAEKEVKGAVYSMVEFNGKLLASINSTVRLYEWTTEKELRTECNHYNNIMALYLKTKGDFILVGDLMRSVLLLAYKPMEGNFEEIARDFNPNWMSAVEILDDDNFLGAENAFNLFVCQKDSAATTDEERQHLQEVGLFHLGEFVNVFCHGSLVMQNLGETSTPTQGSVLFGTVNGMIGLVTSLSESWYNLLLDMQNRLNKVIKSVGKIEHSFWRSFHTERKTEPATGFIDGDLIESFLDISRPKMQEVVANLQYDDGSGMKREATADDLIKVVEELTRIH

As to `Cc1c(C(=O)N2CCC(c3ccc4c(c3)CN(C3CCC(=O)NC3=O)C4=O)CC2)[nH]c2c(C)c(Cl)ccc12` (stereo not shown) [Compound 100, 3-(5-(1-(6-chloro-3,7-dimethyl-1H-indole-2-carbonyl)piperidin-4-yl)-1-oxoinsoindolin-2-yl)piperidine-2,6-dione], the remaining activity at 1 µM is 16.8% and the remaining activity at 10 µM came to 11.4%.

With `Cc1c(C(=O)N2CCC(c3ccc4c(c3F)CN(C3CCC(=O)N(COC(=O)C(C)(C)C)C3=O)C4=O)CC2)[nH]c2cc(Cl)ccc12` (stereo not shown) [Compound 123, (3-(5-(1-(6-chloro-3-methyl-1H-indole-2-carbonyl)piperidin-4-yl)-4-fluoro-1-oxoinsoindolin-2-yl)-2,6-dioxopiperidin-1-yl)methyl pivalate], the remaining activity at 10 µM came out at 14.3%. With `O=C1CCC(N2Cc3cc(C4CCN(C(=O)c5cc6ccc(F)cc6[nH]5)CC4)ccc3C2=O)C(=O)N1` (stereo not shown) [Compound 7, 3-(5-(1-(6-fluoro-1H-indole-2-carbonyl)piperidin-4-yl)-1-oxoinsoindolin-2-yl)piperidine-2,6-dione], the remaining activity at 1 µM is 93.3% and the remaining activity at 10 µM stood at 98.6%.

On to `O=Cc1c(C(=O)N2CCC(c3ccc4c(c3)CN(C3CCC(=O)NC3=O)C4=O)CC2)[nH]c2cc(Cl)ccc12` (stereo not shown) [Compound 81, 6-chloro-2-(4-(2-(2,6-dioxopiperidin-3-yl)-1-oxoindolin-5-yl)piperidine-1-carbonyl)-1H-indole-3-carbaldehyde], for which the remaining activity at 10 µM was 28.7%. `Cc1c(C(=O)N2CCC(c3ccc4c(c3F)CN(C3CCC(=O)NC3=O)C4=O)CC2)[nH]c2c(F)c(C#N)ccc12` (stereo not shown) [Compound 122, 2-(4-(2-(2,6-dioxopiperidin-3-yl)-4-fluoro-1-oxoindolin-5-yl)piperidine-1-carbonyl)-7-fluoro-3-methyl-1H-indole-6-carbonitrile]: the remaining activity at 10 µM stood at 11.2%. Consider `N#Cc1c(C(=O)N2CCC(c3ccc4c(c3)CN(C3CCC(=O)NC3=O)C4=O)CC2)[nH]c2ccccc12` (stereo not shown) [Compound 51, 2-(4-(2-(2,6-dioxopiperidin-3-yl)-1-oxoindolin-5-yl)piperidine-1-carbonyl)-1H-indole-3-carbonitrile], for which the remaining activity at 10 µM worked out at 76.6%. With `O=C1CCC(N2Cc3cc(C4CCN(C(=O)C5=Nc6cccc(Cl)c6C5)CC4)ccc3C2=O)C(=O)N1` (stereo not shown) [Compound 4, 3-(5-(1-(4-chloro-1H-indole-2-carbonyl)piperidin-4-yl)-1-oxoinsoindolin-2-yl)piperidine-2,6-dione], the remaining activity at 1 µM turned out to be 104% and the remaining activity at 10 µM turned out to be 106%. On to `O=C1CCC(N2Cc3cc(C4CCN(C(=O)c5[nH]c6ccccc6c5Cl)CC4)ccc3C2=O)C(=O)N1` (stereo not shown) [Compound 22, 3-(5-(1-(3-chloro-1H-indole-2-carbonyl)piperidin-4-yl)-1-oxoinsoindolin-2-yl)piperidine-2,6-dione], for which the remaining activity at 1 µM turned out to be 64.5% and the remaining activity at 10 µM is 67%.

Take `COc1cc2cc(C(=O)N3CCC(c4ccc5c(c4)CN(C4CCC(=O)NC4=O)C5=O)CC3)[nH]c2cc1OC` (stereo not shown) [Compound 40, 3-(5-(1-(5,6-dimethoxy-1H-indole-2-carbonyl)piperidin-4-yl)-1-oxoinsoindolin-2-yl)piperidine-2,6-dione]: the remaining activity at 1 µM was 92.2% and the remaining activity at 10 µM came to 74.5%.

Consider `Cc1c(C(=O)N2CCC(c3ccc4c(c3)CN(C3CCC(=O)NC3=O)C4=O)CC2)[nH]c2cc(Cl)c(Cl)cc12` (stereo not shown) [Compound 72, 3-(5-(1-(5,6-dichloro-3-methyl-1H-indole-2-carbonyl)piperidin-4-yl)-1-oxoinsoindolin-2-yl)piperidine-2,6-dione], for which the remaining activity at 1 µM was 43.3% and the remaining activity at 10 µM was 34.3%. The like results for `Cc1ccc2cc(C(=O)N3CCC(c4ccc5c(c4)CN(C4CCC(=O)NC4=O)C5=O)CC3)[nH]c2c1` (stereo not shown) [Compound 15, 3-(5-(1-(6-methyl-1H-indole-2-carbonyl)piperidin-4-yl)-1-oxoinsoindolin-2-yl)piperidine-2,6-dione] were, in that order, 66.9% and 73%.

Consider `CC1CC(c2ccc3c(c2)CN(C2CCC(=O)NC2=O)C3=O)CCN1C(=O)c1cc2ccc(Cl)cc2[nH]1` (stereo not shown) [Compound 59, 3-(5-(1-(6-chloro-1H-indole-2-carbonyl)-2-methylpiperidin-4-yl)-1-oxoinsoindolin-2-yl)piperidine-2,6-dione], for which the remaining activity at 10 µM was 25.4%. Take `O=C1CCC(N2Cc3cc(C4CCN(C(=O)c5[nH]c6ccccc6c5CN5CCOCC5)CC4)ccc3C2=O)C(=O)N1` (stereo not shown) [Compound 34, 3-(5-(1-(3-(morpholinomethyl)-1H-indole-2-carbonyl)piperidin-4-yl)-1-oxoinsoindolin-2-yl)piperidine-2,6-dione]: the remaining activity at 1 µM turned out to be 66.5% and the remaining activity at 10 µM worked out at 43.5%. Regarding `Cc1c(C(=O)N2CCC(c3ccc4c(c3)CN(C3CCC(=O)NC3=O)C4=O)CC2)[nH]c2cc(C(C)(C)C)ccc12` (stereo not shown) [Compound 56, 3-(5-(1-(6-(tert-butyl)-3-methyl-1H-indole-2-carbonyl)piperidin-4-yl)-1-oxoinsoindolin-2-yl)piperidine-2,6-dione], the remaining activity at 10 µM was found to be 31.3%. As to `O=C1CCC(N2Cc3cc(C=C4CCN(C(=O)c5cc6ccccc6[nH]5)CC4)ccc3C2=O)C(=O)N1` (stereo not shown) [Compound 24, 3-(5-((1-(1H-indole-2-carbonyl)piperidin-4-ylidene)methyl)-1-oxoinsoindolin-2-yl)piperidine-2,6-dione], the remaining activity at 1 µM was 93.7% and the remaining activity at 10 µM was found to be 88.2%. The like results for `Cc1c(C(=O)N2CC=C(c3ccc4c(c3)CN(C3CCC(=O)NC3=O)C4=O)CC2)[nH]c2cc(Cl)ccc12` (stereo not shown) [Compound 70, 3-(5-(1-(6-chloro-3-methyl-1H-indole-2-carbonyl)-1,2,3,6-tetrahydropyridin-4-yl)-1-oxoinsoindolin-2-yl)piperidine-2,6-dione] were, in that order, 94.8% and 101%. For the compound `Cc1c(C(=O)N2CCC(n3cc(-c4ccc5c(c4)CN(C4CCC(=O)NC4=O)C5=O)nn3)CC2)[nH]c2cc(Cl)ccc12` (stereo not shown) [Compound 66, 3-(5-(1-(1-(6-chloro-3-methyl-1H-indole-2-carbonyl)piperidin-4-yl)-1H-1,2,3-triazol-4-yl)-1-oxoinsoindolin-2-yl)piperidine-2,6-dione], the remaining activity at 10 µM came to 87.8%. For `O=C1CCC(N2Cc3cc(C4CCN(C(=O)c5cc6cc(Cl)ccc6[nH]5)CC4)ccc3C2=O)C(=O)N1` (stereo not shown) [Compound 3, 3-(5-(1-(5-chloro-1H-indole-2-carbonyl)piperidin-4-yl)-1-oxoinsoindolin-2-yl)piperidine-2,6-dione], the remaining activity at 1 µM worked out at 102% and the remaining activity at 10 µM came out at 106%. With `Cc1c(C(=O)N2CC=C(c3ccc4c(c3)CN(C3CCC(=O)NC3=O)C4=O)C2)[nH]c2cc(Cl)ccc12` (stereo not shown) [Compound 65, 3-(5-(1-(6-chloro-3-methyl-1H-indole-2-carbonyl)-2,5-dihydro-1H-pyrrol-3-yl)-1-oxoinsoindolin-2-yl)piperidine-2,6-dione], the remaining activity at 10 µM amounted to 109%. For the compound `Cc1c(C(=O)N2CCC(c3ccc4c(c3)C(=O)N(C3CCC(=O)NC3=O)C4=O)CC2)[nH]c2cc(Cl)ccc12` (stereo not shown) [Compound 92, 5-(1-(6-chloro-3-methyl-1H-indole-2-carbonyl)piperidin-4-yl)-2-(2,6-dioxopiperidin-3-yl)isoindoline-1,3-dione], the remaining activity at 10 µM is 36.1%.
